Among the data in US20140343000A1 (priority 2011, published 2014) are EC50 values, retold here.

As a reminder, the EC50 is the concentration at which the effect is half-maximal.

Bounds are passed on as bounds.

In one test the test system is recombinant NL4-3 virus (Renilla luciferase in nef, Gag P373S; NLRluc) in MT-2 cells. The test can be described thus: whole plant or invertebrate. It counts as cell-based, HIV. The settings on record: Renilla, NL43, luciferase activity in cells infected for 4-5 days with NLRluc recombinants, serial dilutions of inhibitor; class symbols (key in Table 1); read-out: EC50. As for the experimental part:
MT-2 cells and 293T cells were obtained from the NIH AIDS Research and Reference Reagent Program. MT-2 cells were propagated in RPMI 1640 media supplemented with 10% heat inactivated fetal bovine serum, […]. The 293T cells were propagated in DMEM media supplemented with 10% heat inactivated fetal bovine serum (FBS), 100 units/ml penicillin G and 100 μg/ml streptomycin. The proviral DNA clone of NL4-3 was obtained from the NIH AIDS Research and Reference Reagent Program. A recombinant NL4-3 virus, in which a section of the nef gene from NL4-3 was replaced with the Renilla luciferase gene, was used as a reference virus. In addition, residue Gag P373 was converted to P373S. Briefly, the recombinant virus was prepared by transfection of the altered proviral clone of NL4-3. Transfections were performed in 293T cells using LipofectAMINE PLUS from Invitrogen (Carlsbad, Calif.), according to manufacturer's instruction. The virus was titered in MT-2 cells using luciferase enzyme activity as a marker. Luciferase was quantitated using the Dual Luciferase kit from Promega (Madison, Wis.), with modifications to the manufacturer's protocol. The diluted Passive Lysis solution was pre-mixed with the re-suspended Luciferase Assay Reagent and the re-suspended Stop & Glo Substrate (2:1:1 ratio). Fifty (50) μL of the mixture was added to each aspirated well on assay plates and luciferase activity was measured immediately on a Wallac TriLux (Perkin-Elmer). Antiviral activities of inhibitors toward the recombinant virus were quantified by measuring luciferase activity in cells infected for 4-5 days with NLRluc recombinants in the presence serial dilutions of the inhibitor. Table 1 is the key for the data in Table 2.
Consider `C=C(C)[C@@H]1CC[C@]2(NC(=O)NCCN(C)CCO)CC[C@]3(C)[C@H](CC[C@@H]4[C@@]5(C)CC=C(c6ccc(C(=O)O)cc6)C(C)(C)[C@@H]5CC[C@]43C)[C@@H]12` [Example 23, 4-((1R,3aS,5aR,5bR,7aR,11aS,11bR,13aR,13bR)-3a-(3-(2-((2-hydroxyethyl)(methyl)amino)ethyl)ureido)-5a,5b,8,8,11a-pentamethyl-1-(prop-1-en-2-yl)-2,3,3a,4,5,5a,5b,6,7,7a,8,11,11a,11b,12,13,13a,13b-octadecahydro-1H-cyclopenta[a]chrysen-9-yl)benzoic acid], for which the EC50 was below 100 nM. Consider `C=C(C)[C@@H]1CC[C@]2(NC(=O)N(C)CCN(C)C)CC[C@]3(C)[C@H](CC[C@@H]4[C@@]5(C)CC=C(c6ccc(C(=O)O)cc6)C(C)(C)[C@@H]5CC[C@]43C)[C@@H]12` [Example 24, 4-((1R,3aS,5aR,5bR,7aR,11aS,11bR,13aR,13bR)-3a-(3-(2-(dimethylamino)ethyl)-3-methylureido)-5a,5b,8,8,11a-pentamethyl-1-(prop-1-en-2-yl)-2,3,3a,4,5,5a,5b,6,7,7a,8,11,11a,11b,12,13,13a,13b-octadecahydro-1H-cyclopenta[a]chrysen-9-yl)benzoic acid], for which the 50% effective concentration (EC50) was below 100 nM. `C=C(C)[C@@H]1CC[C@]2(NC(=O)N(C)CCn3ccnc3)CC[C@]3(C)[C@H](CC[C@@H]4[C@@]5(C)CC=C(c6ccc(C(=O)O)cc6)C(C)(C)[C@@H]5CC[C@]43C)[C@@H]12` [Example 25, 4-((1R,3aS,5aR,5bR,7aR,11aS,11bR,13aR,13bR)-3a-(3-(2-(1H-imidazol-1-yl)ethyl)-3-methylureido)-5a,5b,8,8,11a-pentamethyl-1-(prop-1-en-2-yl)-2,3,3a,4,5,5a,5b,6,7,7a,8,11,11a,11b,12,13,13a,13b-octadecahydro-1H-cyclopenta[a]chrysen-9-yl)benzoic acid]: the concentration for a half-maximal effect (EC50) was below 100 nM. The same measure, in the same setting: then `C=C(C)[C@@H]1CC[C@]2(NC(=O)NCCNC(C)=O)CC[C@]3(C)[C@H](CC[C@@H]4[C@@]5(C)CC=C(c6ccc(C(=O)O)cc6)C(C)(C)[C@@H]5CC[C@]43C)[C@@H]12` [Example 26, 4-((1R,3aS,5aR,5bR,7aR,11aS,11bR,13aR,13bR)-3a-(3-(2-acetamidoethyl)ureido)-5a,5b,8,8,11a-pentamethyl-1-(prop-1-en-2-yl)-2,3,3a,4,5,5a,5b,6,7,7a,8,11,11a,11b,12,13,13a,13b-octadecahydro-1H-cyclopenta[a]chrysen-9-yl)benzoic acid], with below 100 nM. Still for that read-out and setting: then `C=C(C)[C@@H]1CC[C@]2(NC(=O)NCCN3CCCCC3=O)CC[C@]3(C)[C@H](CC[C@@H]4[C@@]5(C)CC=C(c6ccc(C(=O)O)cc6)C(C)(C)[C@@H]5CC[C@]43C)[C@@H]12` [Example 27, 4-((1R,3aS,5aR,5bR,7aR,11aS,11bR,13aR,13bR)-5a,5b,8,8,11a-pentamethyl-3a-(3-(2-(2-oxopiperidin-1-yl)ethyl)ureido)-1-(prop-1-en-2-yl)-2,3,3a,4,5,5a,5b,6,7,7a,8,11,11a,11b,12,13,13a,13b-octadecahydro-1H-cyclopenta[a]chrysen-9-yl)benzoic acid], with below 100 nM; and `C=C(C)[C@@H]1CC[C@]2(NC(=O)N(CCCN(C)C)CCCN(C)C)CC[C@]3(C)[C@H](CC[C@@H]4[C@@]5(C)CC=C(c6ccc(C(=O)O)cc6)C(C)(C)[C@@H]5CC[C@]43C)[C@@H]12` [Example 30, 4-((1R,3aS,5aR,5bR,7aR,11aS,11bR,13aR,13bR)-3a-(3,3-bis(3-(dimethylamino)propyl)ureido)-5a,5b,8,8,11a-pentamethyl-1-(prop-1-en-2-yl)-2,3,3a,4,5,5a,5b,6,7,7a,8,11,11a,11b,12,13,13a,13b-octadecahydro-1H-cyclopenta[a]chrysen-9-yl)benzoic acid], with below 100 nM; and `C=C(C)[C@@H]1CC[C@]2(NC(=O)NCC(=O)N(C)C)CC[C@]3(C)[C@H](CC[C@@H]4[C@@]5(C)CC=C(c6ccc(C(=O)O)cc6)C(C)(C)[C@@H]5CC[C@]43C)[C@@H]12` [Example 31, 4-((1R,3aS,5aR,5bR,7aR,11aS,11bR,13aR,13bR)-3a-(3-(2-(dimethylamino)-2-oxoethyl)ureido)-5a,5b,8,8,11a-pentamethyl-1-(prop-1-en-2-yl)-2,3,3a,4,5,5a,5b,6,7,7a,8,11,11a,11b,12,13,13a,13b-octadecahydro-1H-cyclopenta[a]chrysen-9-yl)benzoic acid], with below 100 nM. Consider `C=C(C)[C@@H]1CC[C@]2(NC(=O)NCCC(=O)O)CC[C@]3(C)[C@H](CC[C@@H]4[C@@]5(C)CC=C(c6ccc(C(=O)O)cc6)C(C)(C)[C@@H]5CC[C@]43C)[C@@H]12` [Example 33, 4-((1R,3aS,5aR,5bR,7aR,11aS,11bR,13aR,13bR)-3a-(3-(2-carboxyethyl)ureido)-5a,5b,8,8,11a-pentamethyl-1-(prop-1-en-2-yl)-2,3,3a,4,5,5a,5b,6,7,7a,8,11,11a,11b,12,13,13a,13b-octadecahydro-1H-cyclopenta[a]chrysen-9-yl)benzoic acid], for which the EC50 is below 100 nM.

Take `C=C(C)[C@@H]1CC[C@]2(NC(=O)N3CCCN(C(C)=O)CC3)CC[C@]3(C)[C@H](CC[C@@H]4[C@@]5(C)CC=C(c6ccc(C(=O)O)cc6)C(C)(C)[C@@H]5CC[C@]43C)[C@@H]12` [Example 35, 4-((1R,3aS,5aR,5bR,7aR,11aS,11bR,13aR,13bR)-3a-(4-acetyl-1,4-diazepane-1-carboxamido)-5a,5b,8,8,11a-pentamethyl-1-(prop-1-en-2-yl)-2,3,3a,4,5,5a,5b,6,7,7a,8,11,11a,11b,12,13,13a,13b-octadecahydro-1H-cyclopenta[a]chrysen-9-yl)benzoic acid]: the EC50 is below 100 nM. Same read-out and setting: then `C=C(C)[C@@H]1CC[C@]2(NC(=O)OC)CC[C@]3(C)[C@H](CC[C@@H]4[C@@]5(C)CC=C(c6ccc(C(=O)O)cc6)C(C)(C)[C@@H]5CC[C@]43C)[C@@H]12` [Example 36, 4-((1R,3aS,5aR,5bR,7aR,11aS,11bR,13aR,13bR)-3a-(methoxycarbonylamino)-5a,5b,8,8,11a-pentamethyl-1-(prop-1-en-2-yl)-2,3,3a,4,5,5a,5b,6,7,7a,8,11,11a,11b,12,13,13a,13b-octadecahydro-1H-cyclopenta[a]chrysen-9-yl)benzoic acid], with below 100 nM.

The same test, now with this note: Renilla, NL43, luciferase activity in cells infected for 4-5 days with NLRluc recombinants, serial dilutions of inhibitor; numeric values; read-out: EC50.
`C=C(C)[C@@H]1CC[C@]2(NC(=O)NCCN3CCCC3=O)CC[C@]3(C)[C@H](CC[C@@H]4[C@@]5(C)CC=C(c6ccc(C(=O)O)cc6)C(C)(C)[C@@H]5CC[C@]43C)[C@@H]12` [Example 28, 4-((1R,3aS,5aR,5bR,7aR,11aS,11bR,13aR,13bR)-5a,5b,8,8,11a-pentamethyl-3a-(3-(2-(2-oxopyrrolidin-1-yl)ethyl)ureido)-1-(prop-1-en-2-yl)-2,3,3a,4,5,5a,5b,6,7,7a,8,11,11a,11b,12,13,13a,13b-octadecahydro-1H-cyclopenta[a]chrysen-9-yl)benzoic acid]: the half-maximal effective concentration (EC50) came to 4 nM. For the compound `C=C(C)[C@@H]1CC[C@]2(NC(=O)NCCCN3CCCC3=O)CC[C@]3(C)[C@H](CC[C@@H]4[C@@]5(C)CC=C(c6ccc(C(=O)O)cc6)C(C)(C)[C@@H]5CC[C@]43C)[C@@H]12` [Example 29, 4-((1R,3aS,5aR,5bR,7aR,11aS,11bR,13aR,13bR)-5a,5b,8,8,11a-pentamethyl-3a-(3-(3-(2-oxopyrrolidin-1-yl)propyl)ureido)-1-(prop-1-en-2-yl)-2,3,3a,4,5,5a,5b,6,7,7a,8,11,11a,11b,12,13,13a,13b-octadecahydro-1H-cyclopenta[a]chrysen-9-yl)benzoic acid], the EC50 worked out at 10 nM. Still for that read-out and setting: to `C=C(C)[C@@H]1CC[C@]2(NC(=O)N(C)C)CC[C@]3(C)[C@H](CC[C@@H]4[C@@]5(C)CC=C(c6ccc(C(=O)O)cc6)C(C)(C)[C@@H]5CC[C@]43C)[C@@H]12` [Example 32, 4-((1R,3aS,5aR,5bR,7aR,11aS,11bR,13aR,13bR)-3a-(3,3-dimethylureido)-5a,5b,8,8,11a-pentamethyl-1-(prop-1-en-2-yl)-2,3,3a,4,5,5a,5b,6,7,7a,8,11,11a,11b,12,13,13a,13b-octadecahydro-1H-cyclopenta[a]chrysen-9-yl)benzoic acid] belongs 10 nM.

Regarding `C=C(C)[C@@H]1CC[C@]2(NC(=O)N3CCCN(C)CC3)CC[C@]3(C)[C@H](CC[C@@H]4[C@@]5(C)CC=C(c6ccc(C(=O)O)cc6)C(C)(C)[C@@H]5CC[C@]43C)[C@@H]12` [Example 34, 4-((1R,3aS,5aR,5bR,7aR,11aS,11bR,13aR,13bR)-5a,5b,8,8,11a-pentamethyl-3a-(4-methyl-1,4-diazepane-1-carboxamido)-1-(prop-1-en-2-yl)-2,3,3a,4,5,5a,5b,6,7,7a,8,11,11a,11b,12,13,13a,13b-octadecahydro-1H-cyclopenta[a]chrysen-9-yl)benzoic acid], the half-maximal effective concentration (EC50) is 2 nM.
